These results are taken from patent US20230073461A1, “C[…]” (BioNTech SE, priority 2020, published 2023).

Data set [1] is described as follows: Single dose IV PK, metabolism and excretion of LNP lipids in rats. Type of data set: in vivo. To be noted: for drop of concentration in liver / drop of concentration in plasma: two weeks. Here is the method: A single dose PK study of ALC-0315 and […] following intravenous (IV) bolus injection of a nanoparticle formulation in rats was conducted to assess the PK and metabolism of lipid excipients ALC-0315 and ALC-0159.
(§1) In vitro metabolism of ALC-0315 and ALC-0159 was evaluated in blood, liver microsomes, S9 fractions, and hepatocytes from mice, rats, monkeys, and humans. In vivo metabolism was examined in rat plasma, urine, faeces, and liver samples from the PK study. […] ALC-0315 and ALC-0159 are apparently metabolised by hydrolytic metabolism of the ester and amide functionalities, respectively, and this hydrolytic metabolism is observed across the species evaluated.

Data set [2] is described as follows: In vitro metabolism in blood, liver microsomes, S9 fractions, hepatocytes. To be noted: rat samples. In kind it is in vitro ADME, mice, rats, monkeys, and humans. The protocol:
as §1

In data set [3] the target is human ACE2 peptidase domain (amino acids 1-615 of human ACE2 with C-terminal His-10 and Avi tags) (human) (UniProt Q9BYF1).
Chain of UniProt Q9BYF1 (Q9BYF1 18-615 limits assumed): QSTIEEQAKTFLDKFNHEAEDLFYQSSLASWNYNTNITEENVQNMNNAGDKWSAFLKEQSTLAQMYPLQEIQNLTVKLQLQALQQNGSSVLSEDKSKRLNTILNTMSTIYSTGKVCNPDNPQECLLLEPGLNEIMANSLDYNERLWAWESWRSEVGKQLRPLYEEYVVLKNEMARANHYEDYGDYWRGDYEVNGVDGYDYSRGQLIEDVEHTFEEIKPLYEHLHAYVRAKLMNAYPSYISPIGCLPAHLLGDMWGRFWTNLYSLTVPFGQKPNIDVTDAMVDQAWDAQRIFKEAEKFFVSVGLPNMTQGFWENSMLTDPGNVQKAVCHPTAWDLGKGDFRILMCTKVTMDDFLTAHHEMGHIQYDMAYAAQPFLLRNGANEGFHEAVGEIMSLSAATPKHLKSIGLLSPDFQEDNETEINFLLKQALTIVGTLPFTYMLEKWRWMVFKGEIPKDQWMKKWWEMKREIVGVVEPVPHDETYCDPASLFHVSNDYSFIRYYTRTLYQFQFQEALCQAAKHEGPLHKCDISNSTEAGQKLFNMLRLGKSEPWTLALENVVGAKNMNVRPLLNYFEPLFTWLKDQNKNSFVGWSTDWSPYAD
Data set [4] shares this target. Put plainly: biolayer interferometry; compared with a literature value for monomeric RBD. Background: In BLI a coated tip is dipped into the sample, and binding shifts an interference pattern.

On to `CCCCCCCCCCCCCCN(CCCCCCCCCCCCCC)C(=O)COCCOCCOCCOCCOCCOCCOCCOCCOCCOCCOCCOCCOCCOCCOCCOCCOCCOCCOCCOCCOCCOCCOCCOCCOCCOCCOCCOCCOCCOCCOCCOCCOCCOCCOCCOCCOCCOCCOCCOCCOCCOCCOCCOCCOCCOC` [ALC-0159, 2-[(polyethylene glycol)-2000]-N,N-ditetradecylacetamide], for which the “eliminated unchanged in faeces” value in data set [1] was 50%. In data set [1] (IV bolus of LNP), the “apparent terminal t½ in plasma and liver” value was in the range of 48 to 72 h; the “drop of concentration in liver” value is reported as greater than 250 fold; the “drop of concentration in plasma” value is on record as “approximately 8000 fold”. Moreover, the “rate of metabolism in vitro and in vivo” value in data set [2] was “relatively slowly”.
With `CCCCCCCCC(CCCCCC)C(=O)OCCCCCCN(CCCCO)CCCCCCOC(=O)C(CCCCCC)CCCCCCCC` (stereo not drawn) [ALC-0315, ((4-hydroxybutyl)azanediyl)bis(hexane-6,1-diyl)bis(2-hexyldecanoate)], the “eliminated unchanged in faeces” value in data set [1] is on record as “little to no unchanged material”. Further, in data set [1] (IV bolus of LNP), the “drop of concentration in liver” value is roughly 4 fold and the “drop of concentration in plasma” value is recorded as “approximately 7000 fold”. The half-life in data set [1] (rat, plasma and liver, IV bolus of LNP, read-out: apparent terminal t½ in plasma and liver) was 144 to 192 h. The “rate of metabolism in vitro and in vivo” value in data set [2] was “relatively slowly”.
Broadly, the Kd is the free concentration of one partner at which half of the binding sites on the other are occupied at equilibrium, for simple one-to-one binding. A lower Kd goes with tighter binding. “RBD-foldon trimer encoded by BNT162b1 (SARS-CoV-2 spike receptor-binding domain fused at its C-termi (other; other documents disagree on this pair)” showed a Kd in data set [3] of 5 pM. For the same molecule, the fold of the reported KD of monomeric RBD in data set [4] turned out to be 1000 fold.
